Laboratory results taken from paper PMC5324278, “Novel synthetic analogues of avian β-defensin-12: the role of charge, hydrophobicity, and disulfide bridges in biological functions” (BMC Microbiology, 2017).
Bridge positions count the residues as written; N and C are the ends. Ends that are not written are not given here.

How the values were obtained:
[1] = test system: S. Typhimurium (ATCC 14028); type: cell-based, Salmonella enteric serovar Typhimurium; conditions: triplicate; for MIC-ls S. Typhimurium (ATCC 14028): 100× diluted Muller Hinton II broth, 5 mM NaCl; for MIC-ls S. Typhimurium (ATCC 14028) / MIC S. Typhimurium (ATCC 14028): 5 × 10^5 CFU/ml, 37 °C, 24 h; for MIC S. Typhimurium (ATCC 14028): CLSI, standard Muller Hinton II broth; for MBC-ls S. Typhimurium (ATCC 14028): sub-culture of clear MIC-ls wells on LB agar, lowest concentration inhibiting more than 99% of growth
Experimental: (§1) The minimum inhibitory concentrations (MIC) of AvBDs were determined according to the guidelines of the Clinical and Laboratory Standards Institute (CLSI). The Muller Hinton II broth used in standard MIC assays contained 20–25 mg/L of calcium and 10–12.5 mg/L of magnesium. Modified MICs of AvBDs were also determined under a low-salt and low-nutrient condition by using 100× diluted Muller Hinton II broth containing 0.2 mg/L of calcium, 0.1 mg/L magnesium and 5 mM (292 mg/L) NaCl. MIC obtained under the low-salt and low-nutrient condition was referred to as MIC-ls. AvBD peptides were two-fold serially diluted (2 to 256 μg/ml) in a 96-well microtiter plate. An equal volume (μl) of bacterial suspension was added to each well of the plate. The final bacterial concentration in the wells was 5 × 10^5 CFU/ml. […] To complement MIC-ls assays, the minimum bactericidal concentrations (MBC) were evaluated by sub-culturing the contents of the first two clear wells obtained in the MIC-ls assay onto LB agar plates. All assays were conducted in triplicate. The lowest peptide concentration inhibiting more than 99% of bacterial growth was defined as MBC-ls. AvBD analogues were regarded as bactericidal if the MBC was no more than four times the MIC [29].

[2] = test system: avian and mammalian cell lines; conditions: previous findings; cited from earlier work
Experimental: Data on the highest peptide concentration (256 μg/ml) at various exposure times were presented in Additional file 1: Figure S1. The results were consistent with our previous findings that AvBD-6 and AvBD-12 were non-cytotoxic to avian and mammalian cell lines.

[3] = test system: P. aeruginosa (ATCC 27853); type: cell-based, Pseudomonas aeruginosa; conditions: triplicate; for MIC-ls P. aeruginosa (ATCC 27853): 100× diluted Muller Hinton II broth, 5 mM NaCl; for MIC-ls P. aeruginosa (ATCC 27853) / MIC P. aeruginosa (ATCC 27853): 5 × 10^5 CFU/ml, 37 °C, 24 h; for MIC P. aeruginosa (ATCC 27853): CLSI, standard Muller Hinton II broth; for MBC-ls P. aeruginosa (ATCC 27853): sub-culture of clear MIC-ls wells on LB agar, lowest concentration inhibiting more than 99% of growth
Experimental: as §1

MQ-NCSU cells = test: MTT cell cytotoxicity assay; type: cell-based, chicken; conditions: 256 μg/ml; 4, 12, 24 and 48 hours; Student t-test treated vs untreated; n = 3; Figure S1
Experimental: (§2) Chicken macrophage cell lines MQ-NCSU and HD11 were maintained in RPMI-1640 media supplemented with 10% fetal bovine serum (FBS), 2% chicken serum, 100 U/ml penicillin and 100 μg/ml streptomycin (Sigma-Aldrich) at 37 °C in humidified air with 5% CO2. CHO-K1 cells were cultured in the same media without 2% chicken serum. For CCR2-transfected CHO-K1 cells, the medium was supplemented with 500 μg/ml G418 was added (Sigma-Aldrich). Murine immature dendritic cell line JAWSII (ATCC CRL-11904™) was cultured in Alpha minimum essential medium containing 4 mM L-glutamine, 1 mM sodium pyruvate, 5 ng/ml murine Granulocyte macrophage colony-stimulating factor (GM-CSF), 20% FBS, 100 U/ml penicillin and 100 μg/ml streptomycin at 37 °C in humidified air with 5% CO2. The cell cytotoxicity was determined using the MTT (3-(4, 5-dimethylthiazol-2-yl)-2, 5-diphenyltetrazolium bromide metabolic activity assay according to the manufacturer’s instruction (Thermo Fisher Scientific). Briefly, cells (5 × 10^3 cells/well) were seeded in 96-well tissue culture plates, incubated overnight and treated with AvBDs at concentrations of 4, 16, 64 and 256 μg/ml for 4, 12, 24 and 48 h at 37 °C. After treatment, 20 μl of 12 mM MTT solution was added to each well. The plate was incubated for 4 h and read at 540 nm. Viability was expressed as percentage of viable cells relative to the untreated control. The experiments were performed in triplicate.

HD11 cells = test: MTT cell cytotoxicity assay; type: cell-based, chicken; conditions: 256 μg/ml; 4, 12, 24 and 48 hours; Student t-test treated vs untreated; n = 3; Figure S1
Experimental: as §2

S. aureus (ATCC 29213) = type: cell-based, Staphylococcus aureus; conditions: triplicate; for MIC-ls S. aureus (ATCC 29213): 100× diluted Muller Hinton II broth, 5 mM NaCl; for MIC-ls S. aureus (ATCC 29213) / MIC S. aureus (ATCC 29213): 5 × 10^5 CFU/ml, 37 °C, 24 h; for MIC S. aureus (ATCC 29213): CLSI, standard Muller Hinton II broth; for MBC-ls S. aureus (ATCC 29213): sub-culture of clear MIC-ls wells on LB agar, lowest concentration inhibiting more than 99% of growth
Experimental: as §1

E. coli (ATCC 25922) = type: cell-based, Escherichia coli; conditions: triplicate; for MIC-ls E. coli (ATCC 25922): 100× diluted Muller Hinton II broth, 5 mM NaCl; for MIC-ls E. coli (ATCC 25922) / MIC E. coli (ATCC 25922): 5 × 10^5 CFU/ml, 37 °C, 24 h; for MIC E. coli (ATCC 25922): CLSI, standard Muller Hinton II broth; for MBC-ls E. coli (ATCC 25922): sub-culture of clear MIC-ls wells on LB agar, lowest concentration inhibiting more than 99% of growth
Experimental: as §1

[4] = test system: Escherichia coli (ATCC 25922); type: cell-based; conditions: peptide 16 μg/ml; 2 h at 37 °C; 100-fold diluted Mueller Hinton II broth with 5 mM NaCl; colony count; n = 3
Experimental: (§3) Escherichia coli (ATCC 25922), Pseudomonas aeruginosa (ATCC 27853), Salmonella enteric serovar Typhimurium (ATCC 14028) and Staphylococcus aureus (ATCC 29213) were used to assess the antimicrobial activity of AvBD analogues. All bacterial strains were grown on Luria-Bertani (LB) agar plates or Trypticase Soy Agar with 5% Sheep Blood (TSA, Thermo Fisher Scientific) plates at 37 °C. Antimicrobial activity was determined by a colony counting assay. In brief, bacteria were resuspended in 100-fold diluted Mueller Hinton II broth with 5 mM NaCl (minimal growth medium) to obtain a final bacterial concentration of 2 × 10^5 CFU/ml. Twenty-five microliters of bacterial suspension and 25 μl of AvBD analogue solution were mixed in the wells of a 96-well polypropylene microtiter plate (Nunc™, Thermo Fisher Scientific). The final peptide concentrations were 2, 4, 8, 16, 32, 64 and 128 μg/ml. The minimal growth medium without AvBD peptide was included as a negative control. The bacterial-peptide mixtures were incubated at 37 °C for 2 h, ten-fold serially diluted and plated on LB agar plates. The numbers of bacteria colonies were enumerated after 16 h of incubation at 37 °C. Antimicrobial activity was expressed as percent of killing using the following formula: (CFUcontrol - CFUtreated) / CFUcontrol × 100%. To assess the resistance of AvBD analogues to sodium chloride (NaCl), antimicrobial assays were carried out in the presence of 5 mM, 50 mM, 100 mM or 150 mM NaCl. All assays were performed in triplicate.

[5] = test system: Pseudomonas aeruginosa (ATCC 27853); type: cell-based; conditions: peptide 16 μg/ml; 2 h at 37 °C; 100-fold diluted Mueller Hinton II broth with 5 mM NaCl; colony count; n = 3
Experimental: as §3

[6] = test system: Salmonella enteric serovar Typhimurium (ATCC 14028); type: cell-based; conditions: peptide 16 μg/ml; 2 h at 37 °C; 100-fold diluted Mueller Hinton II broth with 5 mM NaCl; colony count; n = 3
Experimental: as §3

[7] = test system: Staphylococcus aureus (ATCC 29213); type: cell-based; conditions: peptide 16 μg/ml; 2 h at 37 °C; 100-fold diluted Mueller Hinton II broth with 5 mM NaCl; colony count; n = 3
Experimental: as §3

CHO-K1 cells = test: MTT cell cytotoxicity assay; type: cell-based; conditions: 256 μg/ml; 4, 12, 24 and 48 hours; Student t-test treated vs untreated; n = 3; Figure S1
Experimental: as §2

JAWSII cells = test: MTT cell cytotoxicity assay; type: cell-based, murine; conditions: 256 μg/ml; 4, 12, 24 and 48 hours; Student t-test treated vs untreated; n = 3; Figure S1
Experimental: as §2, with “The experiments were performed in triplicate.” left out

Row | Sequence | MIC-ls S. Typhimurium (ATCC 14028) [1] [µg/mL] | MIC S. Typhimurium (ATCC 14028) [1] [µg/mL] | MBC-ls S. Typhimurium (ATCC 14028) [1] [µg/mL] | cytotoxicity to avian and mammalian cell lines [2] | MIC-ls P. aeruginosa (ATCC 27853) [3] [µg/mL] | MIC P. aeruginosa (ATCC 27853) [3] [µg/mL] | MBC-ls P. aeruginosa (ATCC 27853) [3] [µg/mL] | metabolic activity (viability relative to untreated control), MQ-NCSU (MQ-NCSU cells) | metabolic activity (viability relative to untreated control), HD11 (HD11 cells) | MIC-ls S. aureus (ATCC 29213) (S. aureus (ATCC 29213)) [µg/mL] | MIC S. aureus (ATCC 29213) (S. aureus (ATCC 29213)) [µg/mL] | MBC-ls S. aureus (ATCC 29213) (S. aureus (ATCC 29213)) [µg/mL] | MIC-ls E. coli (ATCC 25922) (E. coli (ATCC 25922)) [µg/mL] | MIC E. coli (ATCC 25922) (E. coli (ATCC 25922)) [µg/mL] | MBC-ls E. coli (ATCC 25922) (E. coli (ATCC 25922)) [µg/mL] | metabolic activity (viability relative to untreated control), CHO-K1 (CHO-K1 cells) | metabolic activity (viability relative to untreated control), JAWSII (JAWSII cells) | further results
1 | GPDSCNHDRGLCRVGNCNPGEYLAKYCFEPVILCCKPLSPTPTKT (disulfide 5-34, 12-27, 17-35) [AvBD-12, avian β-defensin-12] | 128 | >256 | 256 | non-cytotoxic | 128 | >256 | >256 | No significant difference was found | No significant difference was found | 256 | >256 | 256 | 32 | 256 | 128 | No significant difference was found | No significant difference was found | percent of killing of E. coli [4]: 74.4%; percent of killing of P. aeruginosa [5]: 35.5%; percent of killing of S. Typhimurium [6]: 47.3%; percent of killing of S. aureus [7]: 52.9%
2 | SPIHACRYQRGVCIPGPCRWPYYRVGSCGSGLKSCCVRNRWA (disulfide 6-35, 13-28, 18-36) [AvBD-6, avian β-defensin-6, reference compound] | 16 | >256 | 64 | non-cytotoxic | 64 | >256 | 128 | No significant difference was found | No significant difference was found | 256 | 256 | 256 | 4 | 128 | 16 | No significant difference was found | No significant difference was found | 
